Earlier results as cited in patent US5391753A, “Heteroaryl substituted phenylethenyl compounds having retinoid-like biological activity” (Allergan, Inc., priority 1993, dated 1995).

Tested on: TPA induced ODC activity (ornithine decarboxylase)
Conditions: qualitative statement on retinoic acid, background

CC1=C(/C=C/C(C)=C/C=C/C(C)=C/C(=O)O)C(C)(C)CCC1 [Retinoic acid]
inhibition of induction of ODC activity by TPA: inhibits this induction of ODC activity by TPA
